Measurements from US11739074B2, “Ras inhibitors” (Revolution Medicines, Inc., priority 2019, dated 2023).
Read-outs that look alike come from different tables or passages of the source.

What was measured:
[1] = system: AsPC-1 (K-Ras G12D); assay: Potency assay: pERK in AsPC-1 cells; assay type: cell-based; conditions: Homo sapiens
[2] = system: AsPC-1 (K-Ras G12D); assay: CellTiter-Glo cell viability assay, AsPC-1; assay type: cell-based; conditions: Homo sapiens, ASPC1, 120 h
Experimental: Determination of Cell Viability in RAS Mutant Cancer Cell Lines
Protocol: CellTiter-Glo® Cell Viability Assay
Note—The following protocol describes a procedure for monitoring cell viability of K-Ras mutant cancer cell lines in response to a compound of the invention. Other RAS isoforms may be employed, though the number of cells to be seeded will vary based on cell line used.
Test compounds (132.5 nL) were directly dispensed into the assay plates containing cells. […] On day 5, assay plates and their contents were equilibrated to room temperature for approximately 30 minutes. […] Luminescence was measured using the PerkinElmer Enspire. Data were normalized by the following: (Sample signal/Avg. DMSO)*100. The data were fit using a four-parameter logistic fit.

[3] = ASPC1, AsPC-1 cells, K-Ras G12D, read-out: pERK EC50 (AsPC-1 KRAS G12D)
[4] = AsPC-1, K-Ras G12D, 5-day treatment, read-out: AsPC-1 Cell Viability IC50
[5] = ASPC1, read-out: pERK EC50 (AsPC-1 KRAS G12D)
[6] = read-out: AsPC-1 Cell Viability IC50, AsPC-1, K-Ras G12D, 5-day treatment

| SMILES | EC50 [1, 3] [µM] | IC50 [2, 4] [µM] | EC50 [1, 5] [µM] | IC50 [2, 6] [µM] |
| --- | --- | --- | --- | --- |
| CCn1c(-c2cccnc2[C@H](C)OC)c2c3cc(ccc31)-c1cc(O)cc(c1)C[C@H](NC(=O)[C@H](C(C)C)N(C)C(=O)[C@H]1CCN(S(=O)(=O)[C@H]3CN3C)C1)C(=O)N1CCC[C@H](N1)C(=O)OCC(C)(C)C2 (single isomer, unassigned) [Compound 57] | < 5 | 1 to 10 |  |  |
| CCn1c(-c2cccnc2[C@H](C)OC)c2c3cc(ccc31)-c1cc(O)cc(c1)C[C@H](NC(=O)[C@H](C(C)C)N(C)C(=O)CN(C)S(=O)(=O)[C@H]1CN1C)C(=O)N1CCC[C@H](N1)C(=O)OCC(C)(C)C2 (single isomer, unassigned) [Compound 91] | < 5 | 1 to 10 |  |  |
| CCn1c(-c2cccnc2[C@H](C)OC)c2c3cc(ccc31)-c1cc(O)cc(c1)C[C@H](NC(=O)[C@H](C(C)C)N(C)C(=O)CN(C)S(=O)(=O)[C@@H]1CN1C)C(=O)N1CCC[C@H](N1)C(=O)OCC(C)(C)C2 (single isomer, unassigned) [Compound 92] | < 5 | 1 to 10 |  |  |
| CCn1c(-c2cccnc2[C@H](C)OC)c2c3cc(ccc31)-c1cc(O)cc(c1)C[C@H](NC(=O)[C@H](C(C)C)N(C)C(=O)C1CCN(S(=O)(=O)[C@H]3CN3C)CC1)C(=O)N1CCC[C@H](N1)C(=O)OCC(C)(C)C2 (single isomer, unassigned) [Compound 108] | < 5 | 1 to 10 |  |  |
| CCn1c(-c2cccnc2[C@H](C)OC)c2c3cc(ccc31)-c1cc(O)cc(c1)C[C@H](NC(=O)[C@H](C(C)C)N(C)C(=O)C1CN(S(=O)(=O)[C@H]3CN3C)C1)C(=O)N1CCC[C@H](N1)C(=O)OCC(C)(C)C2 (single isomer, unassigned) [Compound 117] | < 5 | 1 to 10 |  |  |
| CCn1c(-c2cccnc2[C@H](C)OC)c2c3cc(ccc31)-c1cc(O)cc(c1)C[C@H](NC(=O)[C@H](C(C)C)N(C)C(=O)C1CN(S(=O)(=O)[C@@H]3CN3C)C1)C(=O)N1CCC[C@H](N1)C(=O)OCC(C)(C)C2 (single isomer, unassigned) [Compound 118] | < 5 | > 10 |  |  |
| CCn1c(-c2cccnc2[C@H](C)OC)c2c3cc(ccc31)-c1cc(O)cc(c1)C[C@H](NC(=O)[C@H](C(C)C)N(C)C(=O)C1CCN(S(=O)(=O)[C@@H]3CN3C)CC1)C(=O)N1CCC[C@H](N1)C(=O)OCC(C)(C)C2 (single isomer, unassigned) [Compound 119] | < 5 | 1 to 10 |  |  |
| CCn1c(-c2cccnc2[C@H](C)OC)c2c3cc(ccc31)-c1cc(O)cc(c1)C[C@H](NC(=O)[C@H](C1CCCC1)N(C)C(=O)CN(C)C(=O)[C@@H]1N[C@@H]1C1(C#N)CC1)C(=O)N1CCC[C@H](N1)C(=O)OCC(C)(C)C2 (single isomer, unassigned) [Compound 308] | < 5 | 1 to 10 |  |  |
| CCn1c(-c2cnccc2COC)c2c3cc(ccc31)-c1cccc(c1)C[C@H](NC(=O)[C@H](C(C)C)N(C)C(=O)CCN=C=NC1(COC)CC1)C(=O)N1CCC[C@H](N1)C(=O)OCC(C)(C)C2 [72 A and B] | < 5 | 1 to 10 |  |  |
| CCn1c(-c2cnccc2COC)c2c3cc(ccc31)-c1cccc(c1)C[C@H](NC(=O)[C@H](C(C)C)N(C)C(=O)CCN=C=NC(C)(C)C)C(=O)N1CCC[C@H](N1)C(=O)OCC(C)(C)C2 [79 A and B] | < 5 | 1 to 10 |  |  |
| CCn1c(-c2cnccc2COC)c2c3cc(ccc31)-c1cc(O)cc(c1)C[C@H](NC(=O)[C@H](C(C)C)N(C)C(=O)CN(C)C(=O)[C@H]1N[C@H]1C(=O)OC)C(=O)N1CCC[C@H](N1)C(=O)OCC(C)(C)C2 [Compound 51] |  |  | < 5 | > 10 |
| CCn1c(-c2cccnc2[C@H](C)OC)c2c3cc(ccc31)-c1cccc(c1)C[C@H](NC(=O)[C@H](C(C)C)N(C)C(=O)CCN=C=NCCOC)C(=O)N1CCC[C@H](N1)C(=O)OCC(C)(C)C2 [Compound 74] | < 5 | 1 to 10 |  |  |
| CCn1c(-c2cccnc2[C@H](C)OC)c2c3cc(ccc31)-c1cccc(c1)C[C@H](NC(=O)[C@H](C(C)C)N(C)C(=O)[C@H]1C[C@H](N=C=NCCOC)C1)C(=O)N1CCC[C@H](N1)C(=O)OCC(C)(C)C2 [Compound 78] | < 5 | 1 to 10 |  |  |
| CCn1c(-c2cccnc2[C@H](C)OC)c2c3cc(ccc31)-c1cc(O)cc(c1)C[C@H](NC(=O)[C@H](C(C)C)N(C)C(=O)c1ncc(NC(=O)[C@H]3CN3)n1C)C(=O)N1CCC[C@H](N1)C(=O)OCC(C)(C)C2 [Compound 84] | < 5 | 1 to 10 |  |  |
| CCn1c(-c2cccnc2[C@H](C)OC)c2c3cc(ccc31)-c1cc(O)cc(c1)C[C@H](NC(=O)[C@H](C(C)C)N(C)C(=O)C1CCN(C(=O)[C@H]3CN3)CC1)C(=O)N1CCC[C@H](N1)C(=O)OCC(C)(C)C2 [Compound 86] | < 5 | 1 to 10 |  |  |
| CCn1c(-c2cccnc2[C@H](C)OC)c2c3cc(ccc31)-c1cc(O)cc(c1)C[C@H](NC(=O)[C@H](C(C)C)N(C)C(=O)C1CCN(C(=O)[C@@H]3CN3)CC1)C(=O)N1CCC[C@H](N1)C(=O)OCC(C)(C)C2 [Compound 89] | < 5 | > 10 |  |  |

| SMILES | EC50 [1, 3] [µM] | IC50 [2, 4] [µM] | EC50 [1, 5] [µM] | IC50 [2, 6] [µM] |
| --- | --- | --- | --- | --- |
| CCn1c(-c2cnccc2COC)c2c3cc(ccc31)-c1cc(O)cc(c1)C[C@H](NC(=O)[C@H](C(C)C)N(C)C(=O)CN(C)C(=O)[C@H]1N[C@H]1c1ccc(OC)cc1)C(=O)N1CCC[C@H](N1)C(=O)OCC(C)(C)C2 [Compound 93] |  |  | < 5 | > 10 |
| CCn1c(-c2cnccc2COC)c2c3cc(ccc31)-c1cc(O)cc(c1)C[C@H](NC(=O)[C@H](C(C)C)N(C)C(=O)CN(C)C(=O)[C@H]1N[C@@H]1c1ccc(OC)cc1)C(=O)N1CCC[C@H](N1)C(=O)OCC(C)(C)C2 [Compound 97] |  |  | < 5 | 1 to 10 |
| CCn1c(-c2cnccc2COC)c2c3cc(ccc31)-c1cc(O)cc(c1)C[C@H](NC(=O)[C@H](C(C)C)N(C)C(=O)CN(C)C(=O)[C@H]1N[C@H]1C1CC1)C(=O)N1CCC[C@H](N1)C(=O)OCC(C)(C)C2 [Compound 104] |  |  | < 5 | 1 to 10 |
| CCn1c(-c2cnccc2COC)c2c3cc(ccc31)-c1cc(O)cc(c1)C[C@H](NC(=O)[C@H](C(C)C)N(C)C(=O)CN(C)C(=O)[C@@H]1N[C@@H]1C)C(=O)N1CCC[C@H](N1)C(=O)OCC(C)(C)C2 [Compound 105] |  |  | < 5 | 1 to 10 |
| CCn1c(-c2cccnc2[C@H](C)OC)c2c3cc(ccc31)-c1cc(O)cc(c1)C[C@H](NC(=O)[C@H](C(C)C)N(C)C(=O)[C@H]1CN1)C(=O)N1CCC[C@H](N1)C(=O)OCC(C)(C)C2 [Compound 112] | < 5 | 1 to 10 |  |  |
| CCn1c(-c2cccnc2[C@H](C)OC)c2c3cc(ccc31)-c1cc(O)cc(c1)C[C@H](NC(=O)[C@H](C(C)C)N1CCC3(CCN(C(=O)[C@@H]4CN4)C3)C1=O)C(=O)N1CCC[C@H](N1)C(=O)OCC(C)(C)C2 (some centres unmarked) [Compound 113] | < 5 | 1 to 10 |  |  |
| CCn1c(-c2cccnc2[C@H](C)OC)c2c3cc(ccc31)-c1cc(O)cc(c1)C[C@H](NC(=O)[C@H](C(C)C)N(C)C(=O)[C@@H](C)N(C)C(=O)[C@H]1CN1)C(=O)N1CCC[C@H](N1)C(=O)OCC(C)(C)C2 [Compound 114] |  |  | < 5 | 1 to 10 |
| CCn1c(-c2cnccc2COC)c2c3cc(ccc31)-c1cc(O)cc(c1)C[C@H](NC(=O)[C@H](C(C)C)N(C)C(=O)CCNC1=NCCO1)C(=O)N1CCC[C@H](N1)C(=O)OCC(C)(C)C2 [Compound 120] | < 5 | 1 to 10 |  |  |
| CCn1c(-c2cccnc2[C@H](C)OC)c2c3cc(ccc31)-c1cccc(c1)C[C@H](NC(=O)[C@H](C(C)C)N1CC[C@@H](CN=C=NCCOC)C1)C(=O)N1CCC[C@H](N1)C(=O)OCC(C)(C)C2 [Compound 121] | < 5 | 1 to 10 |  |  |
| CCn1c(-c2cccnc2[C@H](C)OC)c2c3cc(ccc31)-c1cccc(c1)C[C@H](NC(=O)[C@H](C(C)C)N(C)C(=O)[C@H]1CC[C@H](N=C=NC(C)C)C1)C(=O)N1CCC[C@H](N1)C(=O)OCC(C)(C)C2 [Compound 124] | < 5 |  |  |  |
| CCn1c(-c2cccnc2[C@H](C)OC)c2c3cc(ccc31)-c1cc(O)cc(c1)C[C@H](NC(=O)[C@H](C(C)C)N(C)C(=O)N1C[C@@H]3[C@H]1CCN3C(=O)[C@H]1CN1)C(=O)N1CCC[C@H](N1)C(=O)OCC(C)(C)C2 [Compound 250] |  | > 10 |  |  |
| CCn1c(-c2cccnc2[C@H](C)OC)c2c3cc(ccc31)-c1cc(O)cc(c1)C[C@H](NC(=O)[C@H](C(C)C)N(C)C(=O)N1C[C@@H]3[C@H]1CCN3C(=O)[C@@H]1CN1)C(=O)N1CCC[C@H](N1)C(=O)OCC(C)(C)C2 [Compound 251] |  | > 10 |  |  |
| CCn1c(-c2cccnc2[C@H](C)OC)c2c3cc(ccc31)-c1cc(O)cc(c1)C[C@H](NC(=O)[C@H](C(C)C)N(C)C(=O)N1CC[C@@H](N(C)C(=O)[C@H]3CN3)C1)C(=O)N1CCC[C@H](N1)C(=O)OCC(C)(C)C2 [Compound 252] |  | > 10 |  |  |
| CCn1c(-c2cccnc2[C@H](C)OC)c2c3cc(ccc31)-c1cc(O)cc(c1)C[C@H](NC(=O)[C@H](C(C)C)N(C)C(=O)N1CC[C@@H](N(C)C(=O)[C@@H]3CN3)C1)C(=O)N1CCC[C@H](N1)C(=O)OCC(C)(C)C2 [Compound 253] |  | > 10 |  |  |
| CCn1c(-c2cccnc2[C@H](C)OC)c2c3cc(ccc31)-c1cc(O)cc(c1)C[C@H](NC(=O)[C@@H](COC1CN(C(=O)[C@H]3CN3)C1)C(C)C)C(=O)N1CCC[C@H](N1)C(=O)OCC(C)(C)C2 [Compound 312] |  | > 10 |  |  |
